Measurements as given in patent publication US10407422B2, “Triazolopyridine inhibitors of myeloperoxidase” (priority 2015, dated 2019).

Legend:
Format in all cases: biochemical
[1] = biological target: T1, myeloperoxidase (MPO) (Homo sapiens (Human), UniProt P05164); assay: MPO peroxidation assay (Amplex Red assay); conditions: potency range class
How it was run: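 IC50 values come from a four-parameter fit of rates taken from the linear 180-540 s portion of a 15 min kinetic read of resorufin (Ex 535/Em 590 nm). Amplex Red (200 μM) plus 10 mM H2O2 was added after a 10 min room-temperature preincubation of inhibitor with 200 pM MPO and 40 nM H2O2 in 100 mM KPi, pH 7.4.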

[2] = biological target: T1, myeloperoxidase (MPO); assay: MPO chlorination assay (APF assay); conditions: potency range class
How it was run: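 Chlorinating activity followed by APF cleavage to fluorescein (485/535 nm, 3 min kinetic read) after adding APF and 10 μM H2O2. Beforehand, 200 pM enzyme, compound and 120 mM NaCl sat 10 min at room temperature in 100 mM KPi, pH 7.4. Initial-rate slopes gave % inhibition; IC50 by Hill-slope fit.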

[3] = biological target: eosinophil peroxidase (EPX) (Homo sapiens (Human), UniProt P11678); assay: EPX bromination assay
Procedure: [formula] where A=minimal Y value (activity level of inhibited sample), B=maximal Y value (activity level of uninhibited sample), C=Log IC50, D=Hill Slope, x=concentration of inhibitor. EPX Bromination Assay
EPX bromination activity was measured in 100 mM KPi (pH 7.4) by monitoring the H2O2 catalyzed formation of 3-bromo tyrosine from tyrosine and potassium bromide. A 50 μl mixture of 0.6 μM EPX (Lee Biosolutions Cat. #342-60) was added to 100 nL inhibitor in 100% DMSO in a 384 well REMP plate. Enzyme and compound were preincubated for ten minutes at room temperature.
After the ten minute preincubation of enzyme and inhibitor, 25 μL of a mixture containing 400 μM tyrosine and 1200 μM potassium bromide was added to the plate containing enzyme and inhibitor, followed by the addition of 25 μl of 20 μM H2O2. The reaction was allowed to proceed for 15 minutes, at which time it was quenched with 10 μL of 20% TCA. The final concentrations of all components were 0.3 μM EPX, 100 μM tyrosine, […], 5 μM H2O2, 0.1% DMSO, 2.0% TCA.
IC50 values were determined by determining the peak areas of 3-bromotyrosine present at the end of the 15 minute reaction and fitting the data to:
[formula] where A=minimal Y value (activity level of inhibited sample), B=maximal Y value (activity level of uninhibited sample), C=Log IC50, D=Hill Slope, x=concentration of inhibitor.
Reversed-phase analysis was performed on a Waters Acquity Ultra Performance LC system using an Acquity UPLC BEH C18 […], 2.1×50 mm analytical column. The column was maintained at 60° C. Samples were eluted using a gradient of 0%-100% B over 2.5 minutes, followed by equilibration with 100% A for 1 minute where A consisted of 0.1% TFA and B consisted of 90% MeOH/0.1% TFA at a flow rate of 0.6 mL/min. The retention time of 3-bromo tyrosine was 1.22 min (Method A).

T1 sequence (P05164 49-745): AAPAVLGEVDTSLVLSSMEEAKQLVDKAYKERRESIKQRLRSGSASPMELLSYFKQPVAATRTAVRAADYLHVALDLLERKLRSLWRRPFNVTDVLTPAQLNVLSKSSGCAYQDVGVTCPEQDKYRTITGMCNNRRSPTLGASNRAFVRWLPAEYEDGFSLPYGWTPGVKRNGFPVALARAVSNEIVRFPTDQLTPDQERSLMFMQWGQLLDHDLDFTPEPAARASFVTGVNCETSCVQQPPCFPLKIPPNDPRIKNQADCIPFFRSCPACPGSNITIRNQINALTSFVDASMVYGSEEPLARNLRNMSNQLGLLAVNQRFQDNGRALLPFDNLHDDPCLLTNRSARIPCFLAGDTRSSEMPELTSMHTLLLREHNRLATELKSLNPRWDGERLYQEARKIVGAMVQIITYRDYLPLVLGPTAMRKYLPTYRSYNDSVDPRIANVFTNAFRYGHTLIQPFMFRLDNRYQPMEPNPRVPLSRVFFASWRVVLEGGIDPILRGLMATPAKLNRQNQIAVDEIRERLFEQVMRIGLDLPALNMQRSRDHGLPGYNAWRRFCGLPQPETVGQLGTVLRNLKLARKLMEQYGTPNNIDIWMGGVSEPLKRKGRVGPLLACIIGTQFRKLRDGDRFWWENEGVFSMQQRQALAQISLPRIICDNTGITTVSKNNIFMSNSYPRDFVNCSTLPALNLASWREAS
Sequence of eosinophil peroxidase (EPX) (P11678 140-715): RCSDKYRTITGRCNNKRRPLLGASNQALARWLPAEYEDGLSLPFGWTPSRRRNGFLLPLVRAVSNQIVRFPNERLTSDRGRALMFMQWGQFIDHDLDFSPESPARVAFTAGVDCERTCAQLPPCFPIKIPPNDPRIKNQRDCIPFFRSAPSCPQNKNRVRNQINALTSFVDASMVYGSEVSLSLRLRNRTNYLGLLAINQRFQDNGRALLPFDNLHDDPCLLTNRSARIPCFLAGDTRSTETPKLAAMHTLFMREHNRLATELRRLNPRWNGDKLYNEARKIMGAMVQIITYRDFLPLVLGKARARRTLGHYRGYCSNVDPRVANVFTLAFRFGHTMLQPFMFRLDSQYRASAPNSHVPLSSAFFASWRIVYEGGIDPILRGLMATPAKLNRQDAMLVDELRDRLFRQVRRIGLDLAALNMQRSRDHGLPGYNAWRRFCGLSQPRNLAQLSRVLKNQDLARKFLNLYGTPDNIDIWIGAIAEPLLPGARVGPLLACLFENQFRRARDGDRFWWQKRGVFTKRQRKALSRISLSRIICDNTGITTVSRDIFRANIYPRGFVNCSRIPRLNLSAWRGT

| Structure (SMILES) | IC50 [1] | IC50 [2] | IC50 [3] |
| --- | --- | --- | --- |
| Nc1cc(Cc2cnn(-c3ccc(F)cc3)c2)c2nn[nH]c2n1 [Example 1, 7-((1-(4-Fluorophenyl)-1H-pyrazol-4-yl)methyl)-3H-[1,2,3]triazolo[4,5-b]pyridin-5-amine] | 1 to 100 nM | 1 to 100 nM | 19 nM |
| Nc1cc(Cc2cnn(-c3ccccc3)c2)c2nn[nH]c2n1 [Example 5, 7-((1-Phenyl-1H-pyrazol-4-yl)methyl)-3H-[1,2,3]triazolo[4,5-b]pyridin-5-amine] | 1 to 100 nM | 1 to 100 nM | 11 nM |
| Nc1cc(Cc2cnn(Cc3ccccc3)c2)c2nn[nH]c2n1 [Example 34, 7-((1-Benzyl-1H-pyrazol-4-yl)methyl)-3H-[1,2,3]triazolo[4,5-b]pyridin-5-amine] | 1 to 100 nM | 101 to 999 nM | 30 nM |
| Nc1cc(Cc2cn(Cc3ccccc3)nn2)c2nn[nH]c2n1 [Example 52, 7-((1-Benzyl-1H-1,2,3-triazol-4-yl)methyl)-3H-[1,2,3]triazolo[4,5-b]pyridin-5-amine] | 1 to 100 nM | 101 to 999 nM | 20 nM |
| Nc1cc(Cc2cnn(C3CCC3)c2)c2nn[nH]c2n1 [Example 53, 7-((1-Cyclobutyl-1H-pyrazol-4-yl)methyl)-3H-[1,2,3]triazolo[4,5-b]pyridin-5-amine] | 1 to 100 nM |  | 32 nM |
| Nc1cc(Cc2cnn(Cc3ccc4c(c3)CCNC4)c2)c2nn[nH]c2n1 [Example 130, 7-((1-((1,2,3,4-Tetrahydroisoquinolin-6-yl)methyl)-1H-pyrazol-4-yl)methyl)-3H-[1,2,3]triazolo[4,5-b]pyridin-5-amine] | 1 to 100 nM | 1 to 100 nM | 8 nM |
| Nc1cc(Cc2cnn(Cc3ccc(CNC4CC4)cc3)c2)c2nn[nH]c2n1 [Example 185, 7-{[1-({4-[(Cyclopropylamino)methyl]phenyl}methyl)-1H-pyrazol-4-yl]methyl}-3H-[1,2,3]triazolo[4,5-b]pyridin-5-amine] | 1 to 100 nM | 101 to 999 nM | 45 nM |
| Nc1cc(Cc2cnn(Cc3cccc(C4CCNC4)c3)c2)c2nn[nH]c2n1 (stereo not shown) [Example 187, 7-[(1-{[3-(Pyrrolidin-3-yl)phenyl]methyl}-1H-pyrazol-4-yl)methyl]-3H-[1,2,3]triazolo[4,5-b]pyridin-5-amine] | 1 to 100 nM | 1 to 100 nM | 21 nM |
| Nc1cc(Cc2cnn(Cc3ccc4c(c3)C(F)(F)CNC4)c2)c2nn[nH]c2n1 [Example 260, 7-({1-[(4,4-Difluoro-1,2,3,4-tetrahydroisoquinolin-6-yl)methyl]-1H-pyrazol-4-yl}methyl)-3H-[1,2,3]triazolo[4,5-b]pyridin-5-amine] | 1 to 100 nM | 101 to 999 nM | 114 nM |
| N#Cc1ccc(Cn2cc(Cc3cc(N)nc4[nH]nnc34)cn2)cc1F [Example 272, 4-{[4-({5-Amino-3H-[1,2,3]triazolo[4,5-b]pyridin-7-yl}methyl)-1H-pyrazol-1-yl]methyl}-2-fluorobenzonitrile] | 1 to 100 nM | 101 to 999 nM |  |
| Nc1cc(Cc2cnn(CCCC3CCNCC3)c2)c2nn[nH]c2n1 [Example 273, 7-({1-[3-(Piperidin-4-yl)propyl]-1H-pyrazol-4-yl}methyl)-3H-[1,2,3]triazolo[4,5-b]pyridin-5-amine] | 1 to 100 nM | 101 to 999 nM |  |
| Nc1cc(Cc2cnn(CC3CC4(CCNCC4)C3)c2)c2nn[nH]c2n1 [Example 274, 7-[(1-{7-Azaspiro[3.5]nonan-2-ylmethyl}-1H-pyrazol-4-yl)methyl]-3H-[1,2,3]triazolo[4,5-b]pyridin-5-amine] | 1 to 100 nM | 101 to 999 nM |  |
| N#Cc1cc(Br)cc(Cn2cc(Cc3cc(N)nc4[nH]nnc34)cn2)c1 [Example 275, 3-{[4-({5-Amino-3H-[1,2,3]triazolo[4,5-b]pyridin-7-yl}methyl)-1H-pyrazol-1-yl]methyl}-5-bromobenzonitrile] | 1 to 100 nM | 101 to 999 nM |  |
| Nc1cc(Cc2cnn(Cc3cc(Cl)cc(-c4ccccc4)c3)c2)c2nn[nH]c2n1 [Example 276, 7-({1-[(3-Chloro-5-phenylphenyl)methyl]-1H-pyrazol-4-yl}methyl)-3H-[1,2,3]triazolo[4,5-b]pyridin-5-amine] | 101 to 999 nM | 101 to 999 nM |  |
| Nc1cc(Cc2cnn(Cc3ccc(F)c(Br)c3)c2)c2nn[nH]c2n1 [Example 277, 7-({1-[(3-Bromo-4-fluorophenyl)methyl]-1H-pyrazol-4-yl}methyl)-3H-[1,2,3]triazolo[4,5-b]pyridin-5-amine] | 1 to 100 nM | 1 to 100 nM |  |
| Nc1cc(Cc2cnn(Cc3cccc(-c4c[nH]cn4)c3)c2)c2nn[nH]c2n1 [Example 278, 7-[(1-{[3-(1H-Imidazol-4-yl)phenyl]methyl}-1H-pyrazol-4-yl)methyl]-3H-[1,2,3]triazolo[4,5-b]pyridin-5-amine] | 1 to 100 nM | 101 to 999 nM |  |
| Cc1[nH]c(-c2ccccc2)nc1-c1cccc(Cn2cc(Cc3cc(N)nc4[nH]nnc34)cn2)c1 [Example 279, 7-[(1-{[3-(5-Methyl-2-phenyl-1H-imidazol-4-yl)phenyl]methyl}-1H-pyrazol-4-yl)methyl]-3H-[1,2,3]triazolo[4,5-b]pyridin-5-amine] | 1 to 100 nM | 101 to 999 nM |  |
| Nc1cc(Cc2cnn(C[C@@H]3C[C@H](Oc4ccc(F)cc4)CN3)c2)c2nn[nH]c2n1 [Example 280, 7-[(1-{[(2S,4S)-4-(4-Fluorophenoxy)pyrrolidin-2-yl]methyl}-1H-pyrazol-4-yl)methyl]-3H-[1,2,3]triazolo[4,5-b]pyridin-5-amine] | 1 to 100 nM | 101 to 999 nM |  |
| Nc1cc(Cc2cnn(CC3CC(Cc4ccc(F)cc4)CN3)c2)c2nn[nH]c2n1 (stereo not shown) [Example 281, 7-{[1-({4-[(4-Fluorophenyl)methyl]pyrrolidin-2-yl}methyl)-1H-pyrazol-4-yl]methyl}-3H-[1,2,3]triazolo[4,5-b]pyridin-5-amine] | 1 to 100 nM | 1 to 100 nM |  |
| Nc1cc(Cc2cnn(C[C@H]3C[C@H](Oc4ccc(F)cc4)CN3)c2)c2nn[nH]c2n1 [Example 282, 7-[(1-{[(2R,4S)-4-(4-Fluorophenoxy)pyrrolidin-2-yl]methyl}-1H-pyrazol-4-yl)methyl]-3H-[1,2,3]triazolo[4,5-b]pyridin-5-amine] | 1 to 100 nM | 1 to 100 nM |  |
| Nc1cc(Cc2cn(Cc3ccccc3)nc2C(F)(F)F)c2nn[nH]c2n1 [Example 283, 7-{[1-Benzyl-3-(trifluoromethyl)-1H-pyrazol-4-yl]methyl}-3H-[1,2,3]triazolo[4,5-b]pyridin-5-amine] | 1000 to 10000 nM | 101 to 999 nM |  |
| Nc1cc(Cc2cn(Cc3cccc(C4CCNCC4)c3)nc2C(F)(F)F)c2nn[nH]c2n1 [Example 284, 7-((1-(3-(Piperidin-4-yl)benzyl)-3-(trifluoromethyl)-1H-pyrazol-4-yl)methyl)-3H-[1,2,3]triazolo[4,5-b]pyridin-5-amine] | 101 to 999 nM | 101 to 999 nM |  |
| Nc1cc(Cc2cnn(Cc3cccc(C4CCNCC4)c3)c2C(F)(F)F)c2nn[nH]c2n1 [Example 285, 7-[(1-{[3-(Piperidin-4-yl)phenyl]methyl}-5-(trifluoromethyl)-1H-pyrazol-4-yl)methyl]-3H-[1,2,3]triazolo[4,5-b]pyridin-5-amine] | 1 to 100 nM | 1 to 100 nM |  |
| Nc1cc(Cc2cn(Cc3cccc(C4CCNCC4)c3)nc2C(F)F)c2nn[nH]c2n1 [Example 286, 7-{[3-(Difluoromethyl)-1-{[3-(piperidin-4-yl)phenyl]methyl}-1H-pyrazol-4-yl]methyl}-3H-[1,2,3]triazolo[4,5-b]pyridin-5-amine] | 101 to 999 nM | 101 to 999 nM |  |
| COc1ccc(CN2CCc3ccc(Cn4cc(Cc5cc(N)nc6[nH]nnc56)cn4)cc3C2=O)cc1 [Example 287, 7-{[4-({5-Amino-3H-[1,2,3]triazolo[4,5-b]pyridin-7-yl}methyl)-1H-pyrazol-1-yl]methyl}-2-[(4-methoxyphenyl)methyl]-1,2,3,4-tetrahydroisoquinolin-1-one] | 1 to 100 nM | 1000 to 10000 nM |  |
